Source: patent publication US4628047A (priority 1982, dated 1986)
Converted amounts (≈) assume the structure as drawn. Where a name gives a salt, the structure may show the parent alone. Read-outs that look alike come from different tables or passages of the source.

Legend:
[1] = tested on: VCR-resistant P388 leukemia cells; assay: Antitumor enhancement effects in mice inoculated with VCR-resistant P388 leukemia cells; type: in vivo, CDF1 female mice; settings: i.p., 10 days
[2] = tested on: ADM-resistant P388 leukemia cells; assay: Antitumor enhancement effect in mice inoculated with ADM-resistant P388 leukemia cells; type: in vivo, CDF1 female mice; settings: diltiazem HCl 125 mg/kg alone, i.p., 10 days
[3] = tested on: P388 leukemia cells having resistance to vincristine; assay: Growth inhibition of VCR-resistant P388 leukemia cells (P388/VCR); type: cell-based; settings: for IC50: Mus musculus
P388 leukemia cells = assay: Growth inhibition of non-resistant P388 leukemia cells; type: cell-based; settings: for IC50: Mus musculus, P388, VCR
K562 = assay: Growth inhibition of K562 leukemia cells; type: cell-based, human; settings: for IC50: Homo sapiens, K562, VCR
K562/VCR = assay: Growth inhibition of VCR-resistant K562 leukemia cells (K562/VCR); type: cell-based, human; settings: for IC50: Homo sapiens, VCR
[4] = tested on: B16 melanoma cells B16 mix; assay: Antitumor enhancement effect in solid tumor cells, B16 mix; type: cell-based; settings: on VCR, diltiazem 0 μM
B16 melanoma cells F10 = assay: Antitumor enhancement effect in solid tumor cells, B16 F10; type: cell-based; settings: on VCR, diltiazem 0 μM
B16 melanoma cells F1 = assay: Antitumor enhancement effect in solid tumor cells, B16 F1; type: cell-based; settings: on VCR, diltiazem 0 μM
B16 melanoma cells B2 = assay: Antitumor enhancement effect in solid tumor cells, B16 B2; type: cell-based; settings: on VCR, diltiazem 0 μM
B16 melanoma cells BL-6 = assay: Antitumor enhancement effect in solid tumor cells, B16 BL-6; type: cell-based; settings: on VCR, diltiazem 0 μM
[5] = tested on: Colon 26 tumor cells C26 mix; assay: Antitumor enhancement effect in solid tumor cells, C26 mix; type: cell-based; settings: on VCR, diltiazem 0 μM
[6] = tested on: Colon 26 tumor cells NL-33; assay: Antitumor enhancement effect in solid tumor cells, colon 26 NL-33; type: cell-based; settings: on VCR, diltiazem 0 μM
Colon 26 tumor cells N-1 = assay: Antitumor enhancement effect in solid tumor cells, colon 26 N-1; type: cell-based; settings: on VCR, diltiazem 0 μM
Colon 26 tumor cells N-5 = assay: Antitumor enhancement effect in solid tumor cells, colon 26 N-5; type: cell-based; settings: on VCR, diltiazem 0 μM
[7] = tested on: Colon 26 tumor cells KL-2; assay: Antitumor enhancement effect in solid tumor cells, colon 26 KL-2; type: cell-based; settings: on VCR, diltiazem 0 μM
[8] = VCR 30 μg/kg + diltiazem HCl 60 mg/kg
[9] = VCR 30 μg/kg + diltiazem HCl 80 mg/kg
[10] = VCR 30 μg/kg + diltiazem HCl 100 mg/kg
[11] = VCR 30 μg/kg + diltiazem HCl 125 mg/kg
[12] = VCR 100 μg/kg + diltiazem HCl 60 mg/kg
[13] = VCR 100 μg/kg + diltiazem HCl 80 mg/kg
[14] = VCR 100 μg/kg + diltiazem HCl 100 mg/kg
[15] = VCR 100 μg/kg + diltiazem HCl 125 mg/kg
[16] = VCR 200 μg/kg + diltiazem HCl 60 mg/kg
[17] = VCR 200 μg/kg + diltiazem HCl 80 mg/kg
[18] = VCR 200 μg/kg + diltiazem HCl 100 mg/kg
[19] = VCR 200 μg/kg + diltiazem HCl 125 mg/kg
[20] = diltiazem hydrochloride 180 mg per day, 4 days, in addition to vincristine 1 mg/week

Question: Which results are given for `COc1ccc([C@@H]2Sc3ccccc3N(CCN(C)C)C(=O)[C@@H]2OC(C)=O)cc1` [Diltiazem HCl]?
Answer: Survival time [1, 8]: 11.8 ± 1.9 days; T/V [1, 8]: 111%; Survival time [1, 9]: 13.8 ± 2.3 days; T/C [1, 9]: 121%; T/V [1, 9]: 130%; Survival time [1, 10]: 12.2 ± 1.3 days; T/V [1, 10]: 115%; Survival time [1, 11]: 13.6 ± 1.9 days; T/C [1, 11]: 119%; T/V [1, 11]: 125%; Survival time [1, 12]: 13.8 ± 1.7 days; T/C [1, 12]: 121%; T/V [1, 12]: 128%; T/C [1, 13]: 126%; T/V [1, 13]: 133%; T/C [1, 14]: 132%; T/V [1, 14]: 139%; T/C [1, 15]: 132%; T/V [1, 15]: 139%; T/C [1, 16]: 130%; T/V [1, 16]: 119%; T/C [1, 17]: 130%; T/V [1, 17]: 119%; T/C [1, 18]: 139%; T/V [1, 18]: 127%; Survival time [1, 19]: 17.0 ± 1.2 days; T/C [1, 19]: 149%; T/V [1, 19]: 137%; Survival time ([1]; diltiazem HCl 100 mg/kg alone): 11.8 ± 0.4 days; Survival time [2]: 13.0 ± 0 days; both symptoms (leukocytes, splenoma) (chronic myeloplast; [20]): both symptoms were remarkably improved; duration of the effect (chronic myeloplast; [20]): about two; side effect (chronic myeloplast; human, in vivo): no side effect was observed

Question: Which results are given for `CC[C@]1(O)C[C@H]2CN(CCc3c([nH]c4ccccc34)[C@@](C(=O)OC)(c3cc4c(cc3OC)N(C=O)[C@H]3[C@@](O)(C(=O)OC)[C@H](OC(C)=O)[C@]5(CC)C=CCN6CC[C@]43[C@@H]65)C2)C1` [VCR, vincristine]?
Answer: IC50 ([3]; P388, VCR, diltiazem 0 μM, P388/VCR): 29.7 ± 2.87 ng/mL (≈ 36 nM); IC50 ([3]; P388, VCR, with diltiazem 10 μM, P388/VCR): 3.07 ± 0.09 ng/mL (≈ 3.72 nM); IC50 ([3]; P388, VCR, with diltiazem 35 μM, P388/VCR): 1.03 ± 0.06 ng/mL (≈ 1.25 nM); IC50 ([3]; P388, VCR, with diltiazem 100 μM, P388/VCR): 0.55 ± 0.17 ng/mL (≈ 0.667 nM); IC50 ([3]; P388, read-out: concentration of vincristine showing 50% inhibition of the resistant cells, with diltiazem (hydrochloride) 35 μM or 100 μM): ≤ 1 ng/mL; Enhancement effect ([3]; on VCR, diltiazem 0 μM, P388/VCR): 1; Survival time ([1]; VCR 30 μg/kg alone): 10.6 ± 2.1 days; T/C ([1]; VCR 30 μg/kg alone): 93%; T/V ([1]; VCR 30 μg/kg alone): 100%; Survival time ([1]; VCR 100 μg/kg alone): 10.8 ± 1.3 days; T/C ([1]; VCR 100 μg/kg alone): 95%; T/V ([1]; VCR 100 μg/kg alone): 100%; Survival time ([1]; VCR 200 μg/kg alone): 12.4 ± 1.0 days; T/C ([1]; VCR 200 μg/kg alone): 109%; T/V ([1]; VCR 200 μg/kg alone): 100%; IC50 (P388 leukemia cells; diltiazem 0 μM): 1.88 ± 0.13 ng/mL (≈ 2.28 nM); IC50 (P388 leukemia cells; with diltiazem 10 μM): 1.43 ± 0.12 ng/mL (≈ 1.73 nM); IC50 (P388 leukemia cells; with diltiazem 35 μM): 0.56 ± 0.06 ng/mL (≈ 0.679 nM); IC50 (P388 leukemia cells; with diltiazem 100 μM): 0.45 ± 0.02 ng/mL (≈ 0.545 nM); Enhancement effect (P388 leukemia cells; on VCR, diltiazem 0 μM): 1; IC50 (K562; diltiazem 0 μM): 2.33 ± 0.24 ng/mL (≈ 2.82 nM); IC50 (K562; with diltiazem 10 μM): 1.52 ± 0.09 ng/mL (≈ 1.84 nM); IC50 (K562; with diltiazem 35 μM): 1 ± 0.17 ng/mL (≈ 1.21 nM); IC50 (K562; with diltiazem 100 μM): 0.69 ± 0.1 ng/mL (≈ 0.836 nM); Enhancement effect (K562; on VCR, diltiazem 0 μM): 1; IC50 (K562/VCR; diltiazem 0 μM): 200 ± 16.3 ng/mL (≈ 242 nM); IC50 (K562/VCR; with diltiazem 10 μM): 23 ± 2.16 ng/mL (≈ 27.9 nM); IC50 (K562/VCR; with diltiazem 35 μM): 4.1 ± 0.36 ng/mL (≈ 4.97 nM); IC50 (K562/VCR; with diltiazem 100 μM): 2.57 ± 0.41 ng/mL (≈ 3.12 nM); Enhancement effect (K562/VCR; on VCR, diltiazem 0 μM): 1; ratio of IC50 dose (enhancement effect of diltiazem) [4]: 1.0; ratio of IC50 dose (enhancement effect of diltiazem) (B16 melanoma cells F10): 1.0; ratio of IC50 dose (enhancement effect of diltiazem) (B16 melanoma cells F1): 1.0; ratio of IC50 dose (enhancement effect of diltiazem) (B16 melanoma cells B2): 1.0; ratio of IC50 dose (enhancement effect of diltiazem) (B16 melanoma cells BL-6): 1.0; ratio of IC50 dose (enhancement effect of diltiazem) [5]: 1.0; ratio of IC50 dose (enhancement effect of diltiazem) [6]: 1.0; ratio of IC50 dose (enhancement effect of diltiazem) (Colon 26 tumor cells N-1): 1.0; ratio of IC50 dose (enhancement effect of diltiazem) (Colon 26 tumor cells N-5): 1.0; ratio of IC50 dose (enhancement effect of diltiazem) [7]: 1.0; number of leukocytes and splenoma (chronic myeloplast; after third administration of vincristine 1 mg per week): the number of leukocytes and the splenoma still increased; number of leukocytes and splenoma (chronic myeloplast; vincristine 1 mg per week and predonisolone 60 mg per day): the number of leukocytes and the splenoma were temporarity somewhat recovered
